Key:
[1] = system: HeLa cells; assay: Scratch test of cell motility, HeLa; format: cell-based, human; conditions: 10 μg/mL, 24 h, serum-free, nontreated 29.3 ± 2.0%
Procedure: To evaluate the ability of tested adducts to inhibit cell-motility-associated metastasis, a scratch test was performed on the HeLa, CT26, and Vero cell lines. The results are shown in Figure 11, Figure 12 and Figure 13. Nontreated HeLa cells filled the scratched strip at 29.3 ± 2.0%, while cells filled 10.4 ± 1.8%, 11.2 ± 1.1%, 20.2 ± 2.9%, 4.8 ± 1.9%, and 11.7 ± 1.8% of the scratched strip under treatment with adducts 4d, 4e, 4f, 4h, and 4i, respectively (Figure 11).
Cells were seeded onto Petri dishes at a density of 5 × 10^5 cells per dish and grown to confluency. Scratch wounds were made with a 200 μL pipette tip, after which detached cells were removed by washing with phosphate-buffered saline. In order to inhibit cell proliferation, culture media was replaced to serum-free DMEM. Compounds 4d, 4e, 4f, […] were added to the cultures at a dose of 10 μg/mL and incubated for 24 h. After that, the cells were stained with Hoechst 33,342 (Thermo Fisher Scientific, Waltham, MA, USA), by adding 2 μL of 1 mg/mL stock solution to 2 mL of medium and DIBAC4 (3) (Thermo Fisher Scientific, Waltham, MA, USA) at the same dose. Images were captured using confocal microscope (Axio Observer Z1, Carl Zeiss MicroImaging GmbH, Jena, Germany). The percentage of wound closure in five randomly chosen fields was calculated with NIH ImageJ software.

[2] = system: HeLa cells; assay: Actin cytoskeleton staining (rhodamine-phalloidin, confocal microscopy), HeLa; format: cell-based, human; conditions: 5 μg/mL, 24 h
Procedure: (§1) Therefore, in the current study, the actin cytoskeleton structure of HeLa, CT26, and Vero cells was analyzed, after the impact of compounds 4a–i, by the presence of filopodia-like protrusions and the availability of stress fibers (Figure 14, Figure 15 and Figure 16). […] HeLa cells were more sensitive to the action of tested products, compared to CT26 and Vero cells.
(§2) Cells were seeded onto Petri dishes with cover slips at a density of 2 × 10^5 cells per dish and incubated for 24 h. After that, cells were treated with compounds 4d, 4e, 4f, 4h, and 4i (5 μg/mL) for 24 h. The medium was removed, and cells were fixed with 4% paraformaldehyde (Sigma-Aldrich, St. Louis, MO, USA), washed three times with PBS, and permeabilized with 0.3% Triton-X100 (Sigma-Aldrich, St. Louis, MO, USA). The cells were rinsed three times with PBS. Actin filaments (microfilaments) were stained at 37 °C for 15 min with rhodamine-phalloidin (Invitrogen, Carlsbad, CA, USA). The samples were rinsed three times with PBS, followed by embedding in Fluoroshield medium (Sigma-Aldrich, St. Louis, MO, USA). Cells were imaged using an Axio Observer Z1 confocal microscope (Carl Zeiss MicroImaging GmbH, Jena, Germany). In each experiment, at least 30 cells were imaged. Images were analyzed by a pathologist, blinded to the treatment mode used for each group, using ImageJ software.

[3] = system: CT26 cells; assay: Actin cytoskeleton staining (rhodamine-phalloidin, confocal microscopy), CT26; format: cell-based, mouse; conditions: CT26, 5 μg/mL, 24 h; for percentage of cells with normal stress fibers (C): control 64%
Procedure: as §1, §2

SMILES | scratched strip filled by cells [1] [%] | percentage of cells with normal stress fibers (C) ([2]; control 80%) [%] | percentage of cells with filopodia-like deformations (A) ([2]; control 91%) [%] | percentage of cells with normal stress fibers (C) [3] [%] | percentage of cells with filopodia-like deformations (A) ([3]; control 43%) [%]
CCC[C@@H]1NC2(C(=O)NC(=O)NC2=O)[C@]2(c3ccccc3)[C@@H](c3ccccc3)[C@]12c1ccccc1 [Compound 4d] | 10.4 ± 1.8 |  |  |  | 
CCCC[C@@H]1NC2(C(=O)NC(=O)NC2=O)[C@]2(c3ccccc3)[C@@H](c3ccccc3)[C@]12c1ccccc1 [Compound 4e] | 11.2 ± 1.1 |  |  |  | 
CC(C)C[C@@H]1NC2(C(=O)NC(=O)NC2=O)[C@]2(c3ccccc3)[C@@H](c3ccccc3)[C@]12c1ccccc1 [Compound 4f] | 20.2 ± 2.9 | 10 | 35 |  | 
CSCC[C@@H]1NC2(C(=O)NC(=O)NC2=O)[C@]2(c3ccccc3)[C@@H](c3ccccc3)[C@]12c1ccccc1 [Compound 4h] | 4.8 ± 1.9 |  |  | 36 | 
O=C1NC(=O)C2(N[C@@H](c3ccccc3)[C@@]3(c4ccccc4)[C@H](c4ccccc4)[C@@]23c2ccccc2)C(=O)N1 [Compound 4i] | 11.7 ± 1.8 |  |  | 38 | 38

Reference: publication PMC9506420, “Biological Evaluation of 3-Azaspiro[Bicyclo[3.1.0]Hexane-2,5′-Pyrimidines] as Potential Antitumor Agents” (International Journal of Molecular Sciences, 2022)
